This note sets out measurements from paper PMC5908784, “Extracellular loops 2 and 3 of the calcitonin receptor selectively modify agonist binding and efficacy” (Biochemical Pharmacology, 2018).

Where a chain is given by its changes, count along the chain named. Where a SMILES comes first, the peptide text is derived from it. Bridges are numbered along the chain shown (N, C = ends).

Holding throughout (test): cAMP accumulation
What all share (assay type): cell-based
In general terms: Changes in cAMP serve as a functional read-out for many G protein-coupled receptors.

Test [1] deals with T1, hCTR I279A (Homo sapiens, UniProt P30988, I279A).
T1 construct: expressed in transfected cells
T1 sequence (P30988 25-474 I279A): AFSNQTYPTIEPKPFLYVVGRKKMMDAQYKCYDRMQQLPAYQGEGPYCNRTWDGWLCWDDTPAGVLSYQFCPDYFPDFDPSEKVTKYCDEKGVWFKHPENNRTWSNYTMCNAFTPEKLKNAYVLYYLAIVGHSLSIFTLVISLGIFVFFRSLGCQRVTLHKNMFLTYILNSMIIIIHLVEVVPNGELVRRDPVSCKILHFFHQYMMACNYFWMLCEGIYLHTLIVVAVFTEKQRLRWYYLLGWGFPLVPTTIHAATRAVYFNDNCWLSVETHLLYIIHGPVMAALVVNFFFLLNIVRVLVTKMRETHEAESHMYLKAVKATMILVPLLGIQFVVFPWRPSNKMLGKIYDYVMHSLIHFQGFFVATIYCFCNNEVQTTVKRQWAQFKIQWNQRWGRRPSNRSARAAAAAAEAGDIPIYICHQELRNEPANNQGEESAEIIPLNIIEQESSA
Particulars: mean ± S.E.M.; for Emax: cAMP maximal response, SEM; for EC50: cAMP, CV1-FlpIn cells, 30 min, IBMX. How it is done: (§1) Cells (2.5 × 10^4 cells/well) were seeded into 96-well plates and incubated overnight. Cells were stimulated with increasing concentrations of ligands for 30 min in the presence of IBMX. The liquid was discarded, changed to absolute ethanol and volatilized to dryness at room temperature. […] Data were normalized to the response of 100 μM forskolin.
(§2) Data were corrected for radioligand occupancy using the Cheng-Prusoff equation in Prism; as such data are reported as pKi. Emax and EC50 were estimated from concentration-response curves using with a 3-parameter logistic equation in Prism (v7). These values are a composite of functional affinity, efficacy and stimulus response coupling. […] Significance was accepted at P < 0.05.

The target of test [2] is T2, hCTR L291A (Homo sapiens, UniProt P30988, L291A).
T2 construct: expressed in transfected cells
T2 sequence (P30988 25-474 L291A): T1 sequence (P30988 25-474 I279A) with A255I, L267A
Particulars: mean ± S.E.M.; for Emax: cAMP maximal response, SEM. How it is done: as §1, §2

For test [3], the target named is T3, hCTR L368A (Homo sapiens, UniProt P30988, L368A).
T3 construct: c-Myc (N); expressed in transfected cells
T3 sequence (P30988 25-474 L368A): T1 sequence (P30988 25-474 I279A) with A255I, L344A
Conditions: mean ± S.E.M.; for Emax: cAMP maximal response, SEM; for EC50: cAMP, CV1-FlpIn cells, 30 min, IBMX. The protocol:
as §1, §2

Test [4] deals with T4, hCTR F356A (Homo sapiens, UniProt P30988, F356A).
T4 construct: c-Myc (N); expressed in transfected cells
T4 sequence (P30988 25-474 F356A): T1 sequence (P30988 25-474 I279A) with A255I, F332A
Particulars: mean ± S.E.M.; for Emax: cAMP maximal response, SEM; for EC50: cAMP, CV1-FlpIn cells, 30 min, IBMX. How it is done: as §1, §2

The target in test [5] is T5, hCTR Y284A (Homo sapiens, UniProt P30988, Y284A).
T5 construct: expressed in transfected cells
T5 sequence (P30988 25-474 Y284A): T1 sequence (P30988 25-474 I279A) with A255I, Y260A
Particulars: mean ± S.E.M.; for Emax: cAMP maximal response, SEM; for EC50: cAMP, CV1-FlpIn cells, 30 min, IBMX. The protocol: as §1, §2

In the case of `CC[C@H](C)[C@H](NC(=O)[C@H](C)NC(=O)[C@@H](NC(=O)[C@H](CCC(N)=O)NC(=O)[C@@H]1CCCN1C(=O)[C@H](Cc1ccccc1)NC(=O)[C@@H](NC(=O)[C@H](Cc1c[nH]cn1)NC(=O)[C@H](Cc1ccccc1)NC(=O)[C@H](CCCCN)NC(=O)[C@H](CC(N)=O)NC(=O)[C@H](Cc1ccccc1)NC(=O)[C@H](CC(=O)O)NC(=O)[C@H](CCC(N)=O)NC(=O)[C@@H](NC(=O)[C@H](Cc1ccc(O)cc1)NC(=O)[C@@H](NC(=O)CNC(=O)[C@H](CC(C)C)NC(=O)[C@H](CCSC)NC(=O)[C@@H]1CSSC[C@H](N)C(=O)NCC(=O)N[C@@H](CC(N)=O)C(=O)N[C@@H](CC(C)C)C(=O)N[C@@H](CO)C(=O)N[C@@H]([C@@H](C)O)C(=O)N1)[C@@H](C)O)[C@@H](C)O)[C@@H](C)O)[C@@H](C)O)C(=O)NCC(=O)N[C@H](C(=O)NCC(=O)N[C@@H](C)C(=O)N1CCC[C@H]1C(N)=O)C(C)C` [hCT], the Emax in test [1] was found to be 91 ± 4%; in test [2] it was 131 ± 5%; in test [3], 70 ± 4%; in test [4], 131 ± 8%; in test [5], 103 ± 10%.

In the case of `CC(C)C[C@H](NC(=O)CNC(=O)[C@H](C)NC(=O)[C@H](CC(C)C)NC(=O)[C@H](CCCNC(=N)N)NC(=O)[C@H](Cc1cnc[nH]1)NC(=O)[C@@H](NC(=O)[C@@H](NC(=O)[C@@H]1CSSC[C@H](NC(=O)[C@H](C)N)C(=O)N[C@@H](CC(=O)O)C(=O)N[C@@H]([C@@H](C)O)C(=O)N[C@@H](C)C(=O)N[C@@H]([C@@H](C)O)C(=O)N1)C(C)C)[C@@H](C)O)C(=O)N[C@@H](CC(C)C)C(=O)N[C@@H](CO)C(=O)N[C@@H](CCCNC(=N)N)C(=O)N[C@@H](CO)C(=O)NCC(=O)NCC(=O)N[C@H](C(=O)N[C@H](C(=O)N[C@@H](CCCCN)C(=O)N[C@@H](CC(N)=O)C(=O)N[C@@H](CC(N)=O)C(=O)N[C@@H](Cc1ccccc1)C(=O)N[C@H](C(=O)N1CCC[C@H]1C(=O)N[C@H](C(=O)N[C@@H](CC(N)=O)C(=O)N[C@H](C(=O)NCC(=O)N[C@@H](CO)C(=O)N[C@@H](CCCCN)C(=O)N[C@@H](C)C(=O)N[C@@H](Cc1ccccc1)C(N)=O)C(C)C)[C@@H](C)O)C(C)C)C(C)C)C(C)C` [hαCGRP], the Emax worked out at 139 ± 18% in test [1]; 101 ± 36% in test [2]; 78 ± 12% in test [3]; 128 ± 10% in test [4]; 139 ± 22% in test [5]. For the same compound, the EC50 was 3.39 nM in test [1], 11.5 nM in test [3], 66.1 nM in test [4] and 19.1 nM in test [5].

In the case of `CSCC[C@H](NC(=O)CNC(=O)[C@H](CO)NC(=O)[C@H](Cc1ccccc1)NC(=O)[C@H](CCCNC(=N)N)NC(=O)[C@H](Cc1c[nH]cn1)NC(=O)[C@H](Cc1ccccc1)NC(=O)[C@H](CC(N)=O)NC(=O)[C@H](CC(N)=O)NC(=O)[C@H](CC(C)C)NC(=O)[C@H](CC(N)=O)NC(=O)[C@H](CCCNC(=N)N)NC(=O)[C@H](Cc1c[nH]c2ccccc12)NC(=O)[C@H](Cc1ccc(O)cc1)NC(=O)[C@H](C)NC(=O)[C@H](CO)NC(=O)[C@H](CC(C)C)NC(=O)[C@@H](NC(=O)[C@@H]1CSSC[C@H](N)C(=O)N[C@@H](CO)C(=O)N[C@@H](CC(N)=O)C(=O)N[C@@H](CC(C)C)C(=O)N[C@@H](CO)C(=O)N[C@@H]([C@@H](C)O)C(=O)N1)C(C)C)C(=O)NCC(=O)N[C@@H](Cc1ccccc1)C(=O)NCC(=O)N1CCC[C@H]1C(=O)N[C@@H](CCC(=O)O)C(=O)N[C@H](C(=O)N1CCC[C@H]1C(N)=O)[C@@H](C)O` [pCT] (H-CSNLSTCVLSAYWRNLNNFHRFSGMGFGPETP-NH2; disulfide 1-7), the Emax was 97 ± 4% in test [1]; 105 ± 5% in test [2]; 96 ± 6% in test [3]; 100 ± 2% in test [4]; 104 ± 9% in test [5]. For the same compound, the EC50 in test [1] is 0.0398 nM; in test [2] (cAMP, CV1-FlpIn cells, 30 min, IBMX), 0.316 nM; in test [3], 0.0316 nM; in test [4], 0.0316 nM; in test [5], 0.0631 nM.

As for `CC(C)C[C@H](NC(=O)[C@H](CC(N)=O)NC(=O)[C@H](CC(N)=O)NC(=O)[C@H](CO)NC(=O)[C@H](CO)NC(=O)[C@H](CCCNC(=N)N)NC(=O)[C@@H](NC(=O)[C@H](CC(C)C)NC(=O)[C@H](Cc1ccccc1)NC(=O)[C@H](CC(N)=O)NC(=O)[C@H](C)NC(=O)[C@H](CC(C)C)NC(=O)[C@H](CCCNC(=N)N)NC(=O)[C@H](CCC(N)=O)NC(=O)[C@@H](NC(=O)[C@H](C)NC(=O)[C@@H]1CSSC[C@H](NC(=O)[C@@H](N)CCCCN)C(=O)N[C@@H](CC(N)=O)C(=O)N[C@@H]([C@@H](C)O)C(=O)N[C@@H](C)C(=O)N[C@@H]([C@@H](C)O)C(=O)N1)[C@@H](C)O)C(C)C)C(=O)NCC(=O)N1CCC[C@H]1C(=O)N[C@H](C(=O)N[C@@H](CC(C)C)C(=O)N1CCC[C@H]1C(=O)N1CCC[C@H]1C(=O)N[C@H](C(=O)N[C@@H](CC(N)=O)C(=O)N[C@H](C(=O)NCC(=O)N[C@@H](CO)C(=O)N[C@@H](CC(N)=O)C(=O)N[C@H](C(=O)N[C@@H](Cc1ccc(O)cc1)C(N)=O)[C@@H](C)O)C(C)C)[C@@H](C)O)C(C)C` [rAmy], the Emax came out at 81 ± 9% in test [1]; 101 ± 13% in test [2]; 95 ± 12% in test [3]; 126 ± 15% in test [4]; 101 ± 10% in test [5].

A word on the Emax: it is the maximal effect, on the per cent scale that the assay sets. As usually defined, the EC50 is the concentration giving half of the maximal effect. Read a high EC50 as lower potency in that assay.
